Source: patent US20250388625A1, “CYCLOSPORINE ANALOGUES” (priority 2022, published 2025)
Read-outs that look alike come from different tables or passages of the source.

Columns and labels:
CypA = CypA (Homo sapiens, UniProt P62937); assay: biochemical; format: binding; conditions: for Max Response / Kd: SPR, Biacore, 25° C.
Procedure: CypA binding was carried out using surface plasmon resonance as described (Warne J Biol Chem. 2016 Feb. 26; 291 (9): 4356-73).
Surface Plasmon Resonance (SPR) using Biacore at 25° C. was used to study the binding interactions between CypA and various inhibitors. The SPR binding experiments used a duel flow cell with a blank reference. The sensor chip surface was initially activated with a mixture of N-hydroxysuccinimide (NHS,) and N-(3-dimethyl-aminopropyl)-N′-ethyl-carbodiimide hydrochloride (EDC) for 420 s with a flow rate of 10 μl/min on blank flow cell 1 in addition to flow cell 2.
CypA protein was diluted to a concentration of 50 μg/mL by the addition of 10 mM sodium acetate pH 5 solution before immobilisation and covalent attachment to the carboxy-methylated dextran matrix of the Biacore CM5 sensor chip. CypA was run against the surface for 420 s and then any unreacted surface was quenched by 420 s of ethanolamine.
Immobilisations were carried out in the presence of JW47 (Warne J Biol Chem. 2016 Feb. 26; 291 (9): 4356-73).
No regeneration stage was required if the dissociation time was sufficient.
Solvent correction was carried out in each experiment using 8 different DMSO dilutions as reference: 2.8%, 2.6%, 2.4%, 2.2%, 2%, 1.8%, 1.6% & 1.5%.
A 50/50 mixture of buffer and DMSO is required to include a wash cycle in the experiment.
50 μl of CypA (0.1 mg/ml)+40 μL of 10 mM sodium acetate pH5+10 μl of 600 μM of JW47 DMSO solution. This mixture was allowed to stand at room temperature for 10 mins prior to set-up in the injection rack.

Human stem cells (HSC) [1] = format: cell-based
IFITM3 [2] = target: T1, IFITM3 (Homo sapiens, UniProt Q01628); format: cell-based; design: treated with 10 ng/ml type 1 interferon (IFNβ) overnight to induce IFITM3 expression; endogenous in cells; host or cells: THP-1 (human monocytic cell line), IFNβ-treated
Human stem cells (HSC) [3] = assay: Cell viability of human stem cells (FIG. 5); conditions: compared with PS+LB treatment
IFITM3 [4] = target: T1, IFITM3; format: cell-based; design: treated with 10 ng/ml type 1 interferon (IFNβ) overnight to induce IFITM3 expression; endogenous in cells; host or cells: THP-1 (human monocytic cell line), IFNβ-treated; remark: listed apart in the source
Human stem cells (HSC) [5] = assay: Mean fluorescent intensity of transduced human stem cells (FIG. 7); format: cell-based
Procedure: Here a different measurement was made of transgene expression using the cells from the same experiment as that above (Example 5). Rather than measuring the number of cells transduced (% infection) the mean fluorescent intensity (greenness of the transgene expressing cells) was measured.

U87 cells = assay: HIV-GFP infection of U87 cells (FIG. 2); format: cell-based; conditions: MOI 0.3, tested at 2.5, 5, or 10 μM
Procedure: Next, an experiment was performed in U87 cells. These cells differ from THP-1 in that they express IFITM3 and TRIM5. Thus only inhibitors with reduced CypA inhibition will rescue infection. This functionally tests whether the inhibitors have lost CypA inhibition, but retain IFITM3 inhibition.
U87 cells were infected at an MOI of 0.3 in the presence of DMSO (0.1% v/v) or inhibitors at 2.5, 5, or 10 μM (left bar to right bar for each indicated compound, respectively). Inhibition of IFITM3 raises infectivity. Unlike other inhibitors, BG147 gives maximal infection enhancement at the lowest concentration of 2.5 μM. Other molecules achieve maximal infection rescue at the highest concentration.

IFITM3 [6] = target: T1, IFITM3; format: cell-based; design: treated with 10 ng/ml type 1 interferon (IFNβ) overnight to induce IFITM3 expression; endogenous in cells; host or cells: THP-1 (human monocytic cell line), IFNβ-treated; remark: listed apart in the source
IFITM3 [7] = target: T1, IFITM3; assay: cell-based or functional assay
cyclophilin A (CypA) = cyclophilin A (CypA) (UniProt P62937); assay: SPR (Biacore, 25 C), CypA amine-coupled to CM5 chip, compound as analyte
cyclophilin A (CypA), sequence (P62937 whole entry): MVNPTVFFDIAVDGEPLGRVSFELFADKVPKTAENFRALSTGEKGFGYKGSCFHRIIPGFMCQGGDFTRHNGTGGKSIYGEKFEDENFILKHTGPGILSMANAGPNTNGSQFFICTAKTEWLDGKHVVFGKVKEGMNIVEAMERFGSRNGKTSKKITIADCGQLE

T1 sequence (Q01628 whole entry): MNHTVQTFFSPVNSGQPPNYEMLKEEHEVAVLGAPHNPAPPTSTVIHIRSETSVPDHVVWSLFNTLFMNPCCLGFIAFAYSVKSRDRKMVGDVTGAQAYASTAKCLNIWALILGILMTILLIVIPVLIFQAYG
CypA, sequence (P62937 whole entry): as the sequence (P62937 whole entry) above

CCc1cc(C(=O)OCCn2ccnc2)ccc1C=CC[C@@H](C)[C@@H](O)[C@H]1C(=O)N[C@@H](CC)C(=O)N(C)CC(=O)N(C)[C@@H](CC(C)C)C(=O)N[C@@H](C(C)C)C(=O)N(C)[C@@H](CC(C)C)C(=O)N[C@@H](C)C(=O)N[C@H](C)C(=O)N(C)[C@@H](CC(C)C)C(=O)N(C)[C@@H](CC(C)C)C(=O)N(C)[C@@H](C(C)C)C(=O)N1C [BG149]
Max Response (CypA): 4.8 RU

CC[C@@H]1NC(=O)[C@H]([C@H](O)[C@H](C)CC=Cc2ccc(C(=O)OCCn3ccnc3)cc2OC)N(C)C(=O)[C@H](C(C)C)N(C)C(=O)[C@H](CC(C)C)N(C)C(=O)[C@H](CC(C)C)N(C)C(=O)[C@@H](C)NC(=O)[C@H](C)NC(=O)[C@H](CC(C)C)N(C)C(=O)[C@H](C(C)C)NC(=O)[C@H](CC(C)C)N(C)C(=O)CN(C)C1=O [BG181]
koff (CypA): 0.228 s⁻¹ | kon (CypA): 6360 M⁻¹ s⁻¹ | Max Response (CypA): 9.8 RU | Kd (CypA; read-out: Kd (Affinity)): 2.66 µM | Kd (CypA; read-out: Kd (Kinetics)): 35.9 µM

C/C=C/C[C@@H](C)[C@@H](O)[C@H]1C(=O)N[C@@H](CC)C(=O)N(C)CC(=O)N(C)[C@@H](CC(C)C)C(=O)N[C@@H](C(C)C)C(=O)N(C)[C@@H](CC(C)C)C(=O)N[C@@H](C)C(=O)N[C@H](C)C(=O)N(C)[C@@H](CC(C)C)C(=O)N(C)[C@@H](CC(C)C)C(=O)N(C)[C@H](C(C)C)C(=O)N1C [CsH, Cyclosporine H, reference compound]
transduction enhancement (% infected human stem cells), first donor (Human stem cells (HSC) [1]): achieves good enhancement but at higher concentrations | rescue of infection from the antiviral effect of IFN (IFITM3 [2]): rescue infection from the antiviral effect of IFN

CC[C@@H]1NC(=O)[C@H]([C@H](O)[C@H](C)C/C=C/c2ccc(C(=O)OCCn3ccnc3)c3ccccc23)N(C)C(=O)[C@H](C(C)C)N(C)C(=O)[C@H](CC(C)C)N(C)C(=O)[C@H](CC(C)C)N(C)C(=O)[C@@H](C)NC(=O)[C@H](C)NC(=O)[C@H](CC(C)C)N(C)C(=O)[C@H](C(C)C)NC(=O)[C@H](CC(C)C)N(C)C(=O)CN(C)C1=O [BG147, 2-(1H-imidazol-1-yl)-ethyl-4-((4R,5R,E)-5-((2S,5S,11S,14S,17S,20S,23R,26S,29S,32S)-5-ethyl-11,17,26,29-tetraisobutyl-14,32-diisopropyl-1,7,10,16,20,23,25,28,31-nonamethyl-3,6,9,12,15,18,21,24,27,30,33-undecaoxo-1,4,7,10,13,16,19,22,25,28,31-undecaazacyclotritriacontan-2-yl)-5-hydroxy-4-methylpent-1-en-1-yl)-1-naphthoate]
transduction enhancement (% infected human stem cells), first donor (Human stem cells (HSC) [1]; 48 hours post transduction, FIG. 4): out performs other inhibitors and is as effective as state of the art transduction enhancer | transduction enhancement (% infected human stem cells), second HSC donor (Human stem cells (HSC) [1]; 48 hours post transduction, FIG. 6): out-performed other inhibitors including state of the art transduction enhancer combination of LB+PS | combination effect on number of transduced cells (Human stem cells (HSC) [1]; BG147 at 2.5 μM with PS and LB, second HSC donor): additive with PS and LB giving the best number of transduced (infected) cells | cell viability after treatment (Human stem cells (HSC) [3]): viability is good | rescue of infection from IFN (% infected cells) (IFITM3 [4]): completely rescued infection from IFN | overall performance as transduction enhancer in stem cells (Human stem cells (HSC) [5]; Examples 5 and 6): performs best | mean fluorescent intensity (greenness of transgene expressing cells) (Human stem cells (HSC) [5]; treatment with 2.5 μM BG147+PS+LB): greenest cells | relative potency in rescue of infection (IFITM3 [2]): more potent than CsH | rescue of infection from the antiviral effect of IFN (IFITM3 [2]): rescue infection from the antiviral effect of IFN | concentration giving maximal infection enhancement (U87 cells): 2.5 µM | koff (CypA): 0.0216 s⁻¹ | kon (CypA): 9750 M⁻¹ s⁻¹ | Kd (CypA; Kd (Affinity)): 5.27 µM | Kd (CypA; Kd (Kinetics)): 2.22 µM | Max Response (CypA): 14.0 RU

CC[C@@H]1NC(=O)[C@H]([C@H](O)[C@H](C)C/C=C/CCCn2ccnc2)N(C)C(=O)C(C(C)C)N(C)C(=O)[C@H](CC(C)C)N(C)C(=O)[C@H](CC(C)C)N(C)C(=O)[C@@H](C)NC(=O)[C@H](C)NC(=O)[C@H](CC(C)C)N(C)C(=O)[C@H](C(C)C)NC(=O)[C@H](CC(C)C)N(C)C(=O)CN(C)C1=O (stereo partly shown) [JW-115, reference compound]
fold rescue compared to inhibited baseline (IFITM3 [6]): 14.2 fold

CC[C@@H]1NC(=O)[C@H]([C@H](O)[C@H](C)CC=Cc2ccc(C(=O)OCCn3ccnc3)cc2C(F)(F)F)N(C)C(=O)[C@H](C(C)C)N(C)C(=O)[C@H](CC(C)C)N(C)C(=O)[C@H](CC(C)C)N(C)C(=O)[C@@H](C)NC(=O)[C@H](C)NC(=O)[C@H](CC(C)C)N(C)C(=O)[C@H](C(C)C)NC(=O)[C@H](CC(C)C)N(C)C(=O)CN(C)C1=O [BG190]
koff (CypA): 0.0138 s⁻¹ | kon (CypA): 4800 M⁻¹ s⁻¹ | Max Response (CypA): 13.2 RU | Kd (CypA; read-out: Kd (Affinity)): 6.07 µM

Cyclosporine H (CsH) (peptide)
fold rescue of HIV-GFP infection compared to IFN-inhibited baseline, THP-1 cells, compound at 5 µM (IFITM3 [7]): 24.6 fold

CC[C@@H]1NC(=O)[C@H]([C@H](O)[C@H](C)CC=Cc2ccc(C(=O)OCCn3ccnc3)cc2C)N(C)C(=O)[C@H](C(C)C)N(C)C(=O)[C@H](CC(C)C)N(C)C(=O)[C@H](CC(C)C)N(C)C(=O)[C@@H](C)NC(=O)[C@H](C)NC(=O)[C@H](CC(C)C)N(C)C(=O)[C@H](C(C)C)NC(=O)[C@H](CC(C)C)N(C)C(=O)CN(C)C1=O [BG150]
koff (CypA): 0.0425 s⁻¹ | kon (CypA): 11100 M⁻¹ s⁻¹ | Max Response (CypA): 18.7 RU | Kd (CypA; read-out: Kd (Affinity)): 1.31 µM | Kd (CypA; read-out: Kd (Kinetics)): 3.84 µM

CC[C@@H]1NC(=O)[C@H]([C@H](O)[C@H](C)CC=Cc2c(OC)cc(C(=O)OCCn3ccnc3)cc2OC)N(C)C(=O)[C@H](C(C)C)N(C)C(=O)[C@H](CC(C)C)N(C)C(=O)[C@H](CC(C)C)N(C)C(=O)[C@@H](C)NC(=O)[C@H](C)NC(=O)[C@H](CC(C)C)N(C)C(=O)[C@H](C(C)C)NC(=O)[C@H](CC(C)C)N(C)C(=O)CN(C)C1=O [BG186, 2-(1H-imidazol-1-yl)ethyl 4-((4R,5R)-5-((2S,5S,11S,14S,17S,20S,23R,26S,29S,32S)-5-ethyl-11,17,26,29-tetraisobutyl-14,32-diisopropyl-1,7,10,16,20,23,25,28,31-nonamethyl-3,6,9,12,15,18,21,24,27,30,33-undecaoxo-1,4,7,10,13,16,19,22,25,28,31-undecaazacyclotritriacontan-2-yl)-5-hydroxy-4-methylpent-1-en-1-yl)-3,5-dimethoxybenzoate]
koff (CypA): 0.422 s⁻¹ | kon (CypA): 14600 M⁻¹ s⁻¹ | Kd (CypA; Kd (Affinity)): 4.76 µM | Kd (CypA; Kd (Kinetics)): 28.9 µM | Max Response (CypA): 7.6 RU

Cyclosporine A (CsA) (peptide)
Max Response (cyclophilin A (CypA)): 40 RU | fold rescue of HIV-GFP infection compared to IFN-inhibited baseline, THP-1 cells, compound at 5 µM (IFITM3 [7]): 9.9 fold

CC[C@@H]1NC(=O)[C@H]([C@H](O)[C@H](C)CC=Cc2ccc(C(=O)OCCn3ccnc3)cc2OC(C)C)N(C)C(=O)[C@H](C(C)C)N(C)C(=O)[C@H](CC(C)C)N(C)C(=O)[C@H](CC(C)C)N(C)C(=O)[C@@H](C)NC(=O)[C@H](C)NC(=O)[C@H](CC(C)C)N(C)C(=O)[C@H](C(C)C)NC(=O)[C@H](CC(C)C)N(C)C(=O)CN(C)C1=O [BG185]
koff (CypA): 0.584 s⁻¹ | kon (CypA): 2250 M⁻¹ s⁻¹ | Max Response (CypA): 14.5 RU | Kd (CypA; read-out: Kd (Affinity)): 2.92 µM | Kd (CypA; read-out: Kd (Kinetics)): 259 µM
